Results on one molecule are retold here after patent publication US20080194666A1, “Combination Treatment Methods” (MEDICAL RESEARCH COUNCIL, priority 2005, published 2008).

Each structure is given as a SMILES string.

The assay has as its system cabbage root fly. Briefly: Swede field trials in Norway, cabbage root fly damage. The format is in vivo. The protocol: An extensive program of non-public field trials, which included five crops of swede were carried out. The field trials design was based around multiple applications of either ECOguard® liquid (garlic juice concentrate) or granules (wood flour granules impregnated with the garlic juice concentrate) and in four out of the five swede trials was referenced against Dimethoate as a standard.

As to `CNC(=O)CSP(=S)(OC)OC` [Dimethoate], the “mean saleable yield (cat 1 + 2)” value amounted to 7.27 kg/sample (Ga-Fa), 5.84 kg/sample (Mid-Troms), 22.16 kg/sample (Sor Ost) and 11.95 kg/sample (Toten). In addition, the “Difference of Means, trt=1 (control) subtracted” value (in vivo) is reported as −0.3100. Besides, the “cabbage root fly damage versus control” value (in vivo) was “significantly reduced damage”. Moreover, where the note is “in vivo”, the “root damage index (RDI), % Change” value is recorded as −5.8%. In addition, for the setting “in vivo”, the “root damage index (RDI), Mean” value is listed as 43.90. For the same molecule, the “mean saleable yield (cat 1 + 2), Mean” value (mean of four sites) is reported as 11.95 kg/sample. For the same molecule, the “mean saleable yield, % Change” value (mean of four sites versus control) is “+8%”.
